# Source: US6887669B1, “Reagents for assays for ligands” (Dade Behring Marburg GmbH, priority 1996, dated 2005)
# Legend:
# [1] = Background absorbance at 340 nm of Reagent A containing releasing agent; assay type: physicochemical; conditions: ANS 0.25 mM, anisic acids 12.5 mM in Rgt A
# Method: In both runs, the background absorbance at 340 nm for each Reagent A was measured in duplicate on a 230-μL combination of 3 μL negative NHP, 72 μL of deionized water, and 155 μL Reagent A. The cell path length was 0.6 cm. […] These changes are noted as follows. Reagent B and water were added in cycle 4. The analysis was finished at the end of cycle 15. Rates were determined using the 5 absorbance readings of cycles 11 through 15.
# [2] = system: MPA bound to plasma proteins in normal human plasma (NHP); assay: MPA enzyme immunoassay rates with releasing agents in Reagent A (NHP versus buffer), Example 2
# Method: Rates were determined on a Cobas Mira Plus® instrument (Roche Diagnostics Systems, Inc., Branchburg, N.J.). The temperature was kept at 37° C. for the entire assay. Timings were carried out in cycles with each cycle being 25 seconds. In cycle 1, the first cycle, 75 μL of water and 3 μL of a sample were mixed with 155 μL of A diluent in a 0.6 cm path length cuvette. This mixture was incubated until the addition of Reagent B in cycle 7. […] In cycle 7, seventy-five μL of Reagent B followed by 20 μL of water was then added to the cuvette, mixed, and incubated until the end of cycle 25 at which time the assay was finished. During the assay, absorbance readings at 340 nm were made at the end of every cycle. A best linear fit was then made using only the 12 consecutive absorbance readings of cycles 14 through 25 versus time in minutes. The slope of this line was the rate.
# In these experiments, the diluent for Reagent A (Rgt A) was made somewhat differently than that in Example 1. However, the composition was the same, except for component 7 (releasing agent, o-anisic acid) and component 10 (concentration of MPA antibody). Five diluents were prepared, four with one of each of the above agents and one control with no agent. First, a 2×solution was made in the manner described in Example 1 but which had only components 1 through 5 and 9 at twice the amounts listed. Next, for three of the diluents, each of the three anisic acid isomers was weighed to achieve a final molarity of 12.5 mM and predissolved in one quarter the final volume of water and a minimum amount of 6 N NaOH (approximately 6 drops per 0.2 grams anisic acid). For the fourth diluent, the agent, ANS, was weighed to give a 0.25 mM final concentration and added to one quarter the final volume of water. The fifth diluent, the control, had no releasing agent. To make each of these five diluents, the appropriate amounts of the 2×solution, the 1×amount of BSA, component 8, and the 1×amount of the Pluronic 25R solution, component 6, were combined. Four of these then received the appropriate agent. All were mixed well. Where necessary, pH adjustments were made as described previously and each preparation was brought to the final volume with deionized water to achieve 1× concentrations of components. Each of these A diluents was then filtered through a 0.2 micron filter. Final pH measurements on each were all between 5.5 to 5.7. For each of these five A diluents, a corresponding Reagent A was made by adding antibody to MPA for a final concentration of 6.5 μg/mL. Reagent B (Rgt B) was prepared as described in Example 1 except that component 20 was omitted and 0.1% BSA (Miles Diagnostics, Kankakee, Ill.) was substituted for BLG.
# In a total of two runs the effects of each of the four agents relative to a control of no agent was examined with respect to (1) background absorbance at 340 nm, (2) the rate of a negative MPA sample, (3) the rate span between 0 and 10 μg/mL MPA, and (4) the closeness of rate matching of a 10 μg/mL MPA spike in NHP and in buffer. Both runs included the control Reagent A. The first run evaluated Reagent A with ANS while the second run evaluated Reagent A preparations containing the structural isomers of anisic acid.
# MPA was spiked into NHP and buffer (Buff) to achieve a final concentration of 10 μg/mL MPA. Buffer in this example was 50 mM MES (2-[N-morpholino]ethanesulfonic acid, obtained from Sigma Chemical Company) with 0.1% (weight/volume) sodium azide, pH 7.1. As with PBS, this buffer has no protein and thus no protein binding of MPA can occur.
# In both runs, the background absorbance at 340 nm for each Reagent A was measured in duplicate on a 230-μL combination of 3 μL negative NHP, 72 μL of deionized water, and 155 μL Reagent A. The cell path length was 0.6 cm. The average A340 (A=absorbance) values are found in Column C of Table 1. Duplicate rates were determined on the spiked and unspiked NHP and buffer similar to Example 1. […]
# [3] = system: MPA bound to plasma proteins in normal human plasma; assay: MPA rates in plasma spikes in the presence of co-administered drugs and salicylate, with or without o-anisic acid, Example 4; conditions: o-anisic acid 12.5 mM in Reagent A
# Method: In a separate study, the ability of o-anisic acid to eliminate the effect of salicylate on rates of MPA plasma spikes was compared. Two sets of antibody reagents (Reagent A) were prepared to the basic formulation described in Example 2 above. In one reagent, no releasing agent was added; in another reagent, o-anisic acid was added at 12.5 mM. A common Reagent B was prepared as described in Example 2. Rates for four levels of MPA spikes into plasma and a plasma control were measured with each reagent set. […] Salicylate was present at 659 μg/mL. Rates were determined as described in Example 2 above with the exception of the absorbance read window, which was extended to cycle 20 where the assay was ended. Rates were determined using the 10 consecutive absorbance readings of cycles 11 through 20.
# [4] = 50 mM MES buffer pH 7.1, ANS 0.25 mM, anisic acids 12.5 mM in Rgt A
# [5] = ANS 0.25 mM, anisic acids 12.5 mM in Rgt A
# [6] = plasma with NI drugs + salicylate 659 μg/mL
# [7] = plasma with non-interfering co-administered drugs
compound,measurement,setting,value
"COc1ccccc1C(=O)O [o-AA, o-methoxybenzoic acid]",C A 340 nm (background absorbance),"[1]; 3 μL negative NHP + 72 μL water + 155 μL Reagent A, 0.6 cm path",0.490
same,D ΔA = agent - control ΔA 340 nm,[1],0.004
same,I (H-G) Buff Rate Span,[2]; 0 to 10 μg/mL MPA in buffer,109.3 mA/min
same,J (H-F) Buff-NHP Rate Diff.,"[2]; 10 μg/mL MPA, closer to zero = better releasing effect",0.6 mA/min
same,G Buff with 0 μg/mL MPA Rate,[2]; [4],168.2 mA/min
same,H Buff with 10 μg/mL MPA Rate,[2]; [4],277.5 mA/min
same,E NHP with 0 μg/mL MPA Rate,[2]; [5],169.5 mA/min
same,F NHP with 10 μg/mL MPA Rate,[2]; [5],276.9 mA/min
same,effect of o-anisic acid in the antibody reagent on salicylate interference,[3],eliminated this potential problem
same,"Rate, MPA + MeOH, 0 μg/mL MPA",[3]; plasma + methanol control,161
same,"Rate, MPA + MeOH, 0.5 μg/mL MPA",[3]; plasma + methanol control,171
same,"Rate, MPA + MeOH, 2.5 μg/mL MPA",[3]; plasma + methanol control,210
same,"Rate, MPA + MeOH, 5 μg/mL MPA",[3]; plasma + methanol control,234
same,"Rate, MPA + MeOH, 15 μg/mL MPA",[3]; plasma + methanol control,264
same,"Rate, MPA + NI + Salicylate, 0 μg/mL MPA",[3]; [6],161
same,"Rate, MPA + NI + Salicylate, 0.5 μg/mL MPA",[3]; [6],171
same,"Rate, MPA + NI + Salicylate, 2.5 μg/mL MPA",[3]; [6],211
same,"Rate, MPA + NI + Salicylate, 5 μg/mL MPA",[3]; [6],234
same,"Rate, MPA + NI + Salicylate, 15 μg/mL MPA",[3]; [6],263
same,"Rate, MPA + NI, 0 μg/mL MPA",[3]; [7],161
same,"Rate, MPA + NI, 0.5 μg/mL MPA",[3]; [7],173
same,"Rate, MPA + NI, 2.5 μg/mL MPA",[3]; [7],211
same,"Rate, MPA + NI, 5 μg/mL MPA",[3]; [7],234
same,"Rate, MPA + NI, 15 μg/mL MPA",[3]; [7],263
